According to US20030228279A1, “Compositions and methods for viral delivery” (Corixa Corporation, priority 2001, published 2003):
“Also recorded” adds a separate entry of the source. Read-outs that look alike come from different tables or passages of the source.

Key:
red blood cells = conditions: cited from earlier work
[1] = in vivo; cited from earlier work
Aqueous solubility = assay type: physicochemical; conditions: at physiologic pH
Source text: Aqueous solubility is a desirable characteristic of adjuvant-active saponins and aids in vaccine formulation and efficacy (Kensil, 1996). Unlike oil-based emulsions and mineral salt adjuvants which can denature antigens and prevent protective effects, saponins are non-denaturing adjuvants due to their high aqueous solubility. Their high water solubility also obviates extensive homogenation procedures required for emulsion-type adjuvants, permitting simple mixing of aqueous adjuvant and antigen solutions prior to immunization. […] Water-soluble O-glycosides of simple hydroxybenzaldehydes (e.g., helicin (31)) not only occur in nature but readily form stable Schiff-base derivatives as well (see, The Merck Index, 12th ed.; Merck & Co., Inc.: Whitehouse Station, N.J., 1996) The synthetically simpler succinate (VI) is also useful since succinic acid constitutes a simple 4-carbon isostere for the glucuronic acid moiety and has been used to impart triterpenes with aqueous solubility (see, Gottfried and Baxendale, U.S. Pat. No. 3,070,623, 1962).

sheep red blood cells = conditions: cited from earlier work
[2] = cited from earlier work

For `C[C@@H]1CC[C@@]2(OC1)O[C@H]1[C@@H](O)[C@H]3[C@@H]4CC[C@H]5C[C@@H](O[C@@H]6O[C@H](CO)[C@H](O[C@@H]7O[C@H](CO)[C@@H](O)[C@H](O[C@@H]8OC[C@@H](O)[C@H](O)[C@H]8O)[C@H]7O[C@@H]7O[C@H](CO)[C@H](O)[C@H](O[C@@H]8O[C@H](CO)[C@@H](O)[C@H](O)[C@H]8O)[C@H]7O)[C@H](O)[C@H]6O)[C@H](O)C[C@]5(C)[C@H]4CC[C@]3(C)[C@H]1[C@@H]2C` [digitonin], the “hemolytic activity towards red blood cells” value (red blood cells) is given as “highly hemolytic” and the adjuvant activity [1] is given as “adjuvant-inactive”.

For `O=Cc1cc(OCc2ccc(C(=O)O)cc2)ccc1O` [isotucaresol], the aqueous solubility (Aqueous solubility) was “sparingly soluble”.

For QS-7, the “hemolytic activity towards red blood cells” value (red blood cells) is listed as “non-hemolytic”, the “concentrations causing no detectable hemolysis of sheep red blood cells” value (sheep red blood cells) is listed as no more than 200000 ng/mL and the “critical micellar concentration in phosphate buffered saline” value [2] is listed as roughly 0.07%. The “critical micellar concentration in water” value [2] was “approximately 0.06%” and the adjuvant activity [1] was “potent adjuvants; also recorded: potent inducer of cell-mediated and humoral responses”.

For QS-17, the “concentrations causing hemolysis of sheep red blood cells” value (“concentrations causing hemolysis” below) (sheep red blood cells) is given as no less than 25000 ng/mL, the “critical micellar concentration in phosphate buffered saline” value [2] is given as 0.03 % (w/v) and the “critical micellar concentration in water” value [2] is given as 0.06 % (w/v). The adjuvant activity [1] was “potent adjuvants”.

For QS-18, the “concentrations causing hemolysis” value (sheep red blood cells) is given as no less than 25000 ng/mL, the “critical micellar concentration in phosphate buffered saline” value [2] is given as 0.02 % (w/v) and the “critical micellar concentration in water” value [2] is given as 0.04 % (w/v). For the same molecule, the adjuvant activity [1] was “potent adjuvants”.

For QS-21, the “concentrations causing hemolysis” value (sheep red blood cells; sheep red blood cells) is listed as no less than 25000 ng/mL, the “critical micellar concentration in phosphate buffered saline” value [2] is listed as ~0.02 % (w/v) and the “critical micellar concentration in water” value [2] is listed as “about 0.03 % (w/v)”. The adjuvant activity [1] was “potent adjuvants”.
